# What was measured:
# [1] = Behaviour of the bioactive in distilled water at 37° C. without solubilizer; type: physicochemical; conditions: 2 grams in 200 ml distilled water, no solubilizer
# Description: (§1) • A. Two beakers each containing 200 ml distilled water (37° C.) were taken. • B. To each beaker, 2 grams commercially available curcuminoids (Curcumin C3 Complex®) was added and gently mixed. […] To the first beaker, 0.35 gram of Bacopa glycosides including 25% w/w to 75% w/w of total Bacosides (Bacopin®) was added and gently mixed for about 15 minutes. […] This corresponded to a Critical Micelle Concentration (CMC) of 17.5% • D. To the second beaker, 0.40 gram of Centella glycosides including at least 8% w/w of total triterpenes (Centellin®) was added and gently mixed for about 15 minutes. […] This corresponded to Critical Micelle Concentration (CMC) of 20.0%.
# (§2) • A. Five beakers each containing 200 ml distilled water at 37° C. were taken. To 3 beakers were added 2 gm of bioactive compounds forskolin (Forslean® 95%), boswellic acids (Boswellin® 70%) and pterostilbene 99% respectively. To the other 2 beakers were added 2 gm of Saw Palmetto extract 85% and Ginger Soft extract SCFE 35% respectively. […] The Critical Micelle Concentration (CMC) for each system was determined (Table A; FIGS. 3A, 3B, 3C, 3D and 3E)
# (§3) • A. To a beaker containing 200 ml distilled water (37° C.) was added 2 grams of tetrahydrocurcuminoids (C3 Reduct®). […] The majority (˜70%) of tetrahydrocurcuminoids was not observable at the bottom of the beaker anymore due to formation of emulsion (FIG. 4)
# [2] = type: physicochemical
# Description: as §1, §2, §3
SMILES,solubility in distilled water (observation) [1],CMC % (wt/wt) [2]
"COc1cc(/C=C/c2ccc(O)cc2)cc(OC)c1 [Pterostilbene 99%, pterostilbene]",did not go into solution,14.50% (wt/wt)
"C=C[C@@]1(C)CC(=O)[C@]2(O)[C@@]3(C)[C@@H](O)CCC(C)(C)[C@@H]3[C@H](O)[C@H](OC(C)=O)[C@@]2(C)O1 [ForsLean 95%, forskolin]",did not go into solution,20% (wt/wt)

# Reference: patent US20140303258A1, “Method of solubilizing insoluble bioactive compounds using triterpene glycosides and compositions thereof” (priority 2013, published 2014)
